Consider two molecules from ChEMBL document CHEMBL3045862, “PRE-CLINICAL AND CLINICAL PHARMACOKINETICS OF THE DIASTEREOMERS OF ARTEETHER, A POTENT ANTIMALARIAL” (Med Chem Res, 2004).

As a reminder, the Tmax is the time from dosing to the highest level. By AUC is commonly meant the area under the concentration-time curve, a measure of exposure. Usually MRT stands for the average time that molecules of a dose stay in the body. In general, clearance refers to the rate of elimination divided by the concentration. The AUC(0-inf) is total exposure, with the tail of the curve extrapolated. What is called CL/F is clearance divided by bioavailability, as obtained after extravascular dosing.

The nature of data set [1]: Tmax in Homo sapiens (human) at 150 mg. Format: ADME, organism-based. Particulars: in vivo.
Data set [2] has as its system Rhesus monkey. Kind of data set: (§1) Clearance in Macaca mulatta (Rhesus monkey) at 4 mg/kg, iv. Format: ADME, organism-based. Further details: dose 4 mg/kg, route intravenous. The note with it: in vivo.
For data set [3], the system named is Rhesus monkey. Kind of data set: (§2) AUC (0 to infinity) in Macaca mulatta (Rhesus monkey) at 4 mg/kg, iv. More on the design: time infinity, dose 4 mg/kg, route intravenous. The note with it: in vivo. It is filed as ADME, organism-based, Plasma.
The test system of data set [4] is Rhesus monkey. The data set is described as follows: (§3) Clearance in Macaca mulatta (Rhesus monkey) at 7.5 mg/kg, administered intramuscularly. It is filed as ADME, organism-based. More on the design: dose 7.5 mg/kg, route intramuscular. The note with it: in vivo, im.
Data set [5] concerns Rhesus monkey. Kind of data set: (§4) AUC (0 to infinity) in Macaca mulatta (Rhesus monkey) at 7.5 mg/kg, administered intramuscularly. Format: ADME, organism-based, Plasma. Further details: time infinity, dose 7.5 mg/kg, route intramuscular. The note with it: in vivo, im.
The subject of data set [6] is Rhesus monkey. Kind of data set: Volume of distribution in Macaca mulatta (Rhesus monkey) at 50 mg/kg, po. Format: ADME, organism-based. More on the design: dose 50 mg/kg, route oral. Particulars: in vivo.
Data set [7] has as its system Rattus norvegicus. Kind of data set: (§5) AUC (0 to infinity) in Rattus norvegicus Sprague-Dawley (rat) at 30 mg/kg, administered intramuscularly. It is filed as ADME, organism-based, Plasma. Further details: time infinity, dose 30 mg/kg, route intramuscular. Particulars: in vivo, im.
Data set [8] can be described thus: Mean residence time in Rattus norvegicus Sprague-Dawley (rat) at 17.5 mg/kg, administered intramuscularly. It is filed as ADME, organism-based. Further details: dose 17.5 mg/kg, route intramuscular. The note with it: in vivo, im.
Data set [9] relates to Rattus norvegicus. The data set is described as follows: (§6) Clearance in Rattus norvegicus Sprague-Dawley (rat) at 17.5 mg/kg, administered intramuscularly. Format: ADME, organism-based. More on the design: dose 17.5 mg/kg, route intramuscular. Particulars: in vivo, im.
In data set [10] the test system is Rattus norvegicus. Kind of data set: (§7) AUC (0 to infinity) in Rattus norvegicus Sprague-Dawley (rat) at 17.5 mg/kg, administered intramuscularly. Format: ADME, organism-based, Plasma. Further details: dose 17.5 mg/kg, route intramuscular, time infinity. The note with it: in vivo, im.
In data set [11] the test system is Rattus norvegicus. The data set is described as follows: (§8) Clearance in Rattus norvegicus Sprague-Dawley (rat) at 9 mg/kg, administered intramuscularly. Format: ADME, organism-based. More on the design: dose 9 mg/kg, route intramuscular. Particulars: in vivo, im.
Data set [12] concerns Rattus norvegicus. Kind of data set: (§9) AUC (0 to infinity) in Rattus norvegicus Sprague-Dawley (rat) at 9 mg/kg, administered intramuscularly. The note with it: in vivo, im. More on the design: time infinity, dose 9 mg/kg, route intramuscular. Format: ADME, organism-based, Plasma.
Data set [13] concerns Rhesus monkey. Kind of data set: (§10) AUC (0 to infinity) in Macaca mulatta (Rhesus monkey) at 50 mg/kg, po. Format: ADME, organism-based, Plasma. Further details: time infinity, dose 50 mg/kg, route oral. Particulars: in vivo.
In data set [14] the test system is Rattus norvegicus. Kind of data set: (§11) Clearance in Rattus norvegicus Sprague-Dawley (rat) at 9 mg/kg, po. Format: ADME, organism-based. More on the design: dose 9 mg/kg, route oral. The note with it: in vivo.
Data set [15] is described as follows: Elimination half life in Rattus norvegicus Sprague-Dawley (rat) at 9 mg/kg, po. Format: ADME, organism-based. Further details: dose 9 mg/kg, route oral. Particulars: in vivo, read-out: beta t1/2 (converted).
For data set [16], the system named is Rattus norvegicus. Kind of data set: (§12) AUC (0 to infinity) in Rattus norvegicus Sprague-Dawley (rat) at 9 mg/kg, po. Format: ADME, organism-based, Plasma. More on the design: time infinity, dose 9 mg/kg, route oral. The note with it: in vivo.
The subject of data set [17] is Rattus norvegicus. Kind of data set: (§13) Clearance in Rattus norvegicus Sprague-Dawley (rat) at 2 mg/kg, iv. The note with it: in vivo. More on the design: dose 2 mg/kg, route intravenous. Format: ADME, organism-based.
Data set [18] deals with Rattus norvegicus. The data set is described as follows: (§14) AUC (0 to infinity) in Rattus norvegicus Sprague-Dawley (rat) at 2 mg/kg, iv. The note with it: in vivo. Format: ADME, organism-based, Plasma. More on the design: time infinity, dose 2 mg/kg, route intravenous.
In data set [19] the test system is Rattus norvegicus. Kind of data set: Clearance in Rattus norvegicus Sprague-Dawley (rat) at 30 mg/kg, po. Format: ADME, organism-based. More on the design: dose 30 mg/kg, route oral. Particulars: in vivo.
A short description of data set [20]: Elimination half life in Rattus norvegicus Sprague-Dawley (rat) at 30 mg/kg, po. It is filed as ADME, organism-based. Further details: dose 30 mg/kg, route oral. The note with it: in vivo, read-out: beta t1/2 (converted).
Data set [21] relates to Rattus norvegicus. The data set is described as follows: (§15) AUC (0 to infinity) in Rattus norvegicus Sprague-Dawley (rat) at 30 mg/kg, po. Format: ADME, organism-based, Plasma. More on the design: time infinity, dose 30 mg/kg, route oral. The note with it: in vivo.
Data set [22] relates to Rattus norvegicus. The data set is described as follows: (§16) Clearance in Rattus norvegicus Sprague-Dawley (rat) at 17.5 mg/kg, po. Format: ADME, organism-based. Further details: dose 17.5 mg/kg, route oral. Particulars: in vivo.
Data set [23] has as its system Rattus norvegicus. The data set is described as follows: (§17) AUC (0 to infinity) in Rattus norvegicus Sprague-Dawley (rat) at 17.5 mg/kg, po. Format: ADME, organism-based, Plasma. Further details: time infinity, dose 17.5 mg/kg, route oral. Particulars: in vivo.
Data set [24] concerns Rattus norvegicus. Kind of data set: (§18) Clearance in Rattus norvegicus Sprague-Dawley (rat) at 30 mg/kg, administered intramuscularly. Format: ADME, organism-based. Further details: dose 30 mg/kg, route intramuscular. Particulars: in vivo, im.
A short description of data set [25]: as §1. Format: ADME, organism-based. More on the design: dose 4 mg/kg, route intravenous. Particulars: in vivo.
A short description of data set [26]: as §2. The note with it: plasma. Format: ADME, organism-based, Plasma. More on the design: time infinity, dose 4 mg/kg, route intravenous.
Data set [27] in a line: as §3. Format: ADME, organism-based. More on the design: dose 7.5 mg/kg, route intramuscular. The note with it: in vivo, im.
Data set [28] can be described thus: as §4. It is filed as ADME, organism-based, Plasma. Further details: time infinity, dose 7.5 mg/kg, route intramuscular. Particulars: plasma, im.
Data set [29] in a line: as §5. Format: ADME, organism-based, Plasma. Further details: time infinity, dose 30 mg/kg, route intramuscular. Particulars: Sprague-Dawley, plasma, im.
The nature of data set [30]: as §6. Format: ADME, organism-based. Further details: dose 17.5 mg/kg, route intramuscular. The note with it: Sprague-Dawley, in vivo, im.
Data set [31] can be described thus: as §7. Format: ADME, organism-based, Plasma. More on the design: dose 17.5 mg/kg, route intramuscular, time infinity. Particulars: Sprague-Dawley, plasma, im.
The nature of data set [32]: as §8. Format: ADME, organism-based. More on the design: dose 9 mg/kg, route intramuscular. Particulars: Sprague-Dawley, in vivo, im.
Data set [33] is described as follows: as §9. Format: ADME, organism-based, Plasma. More on the design: time infinity, dose 9 mg/kg, route intramuscular. The note with it: Sprague-Dawley, plasma, im.
A short description of data set [34]: as §10. It is filed as ADME, organism-based, Plasma. More on the design: time infinity, dose 50 mg/kg, route oral. The note with it: plasma.
Data set [35] in a line: as §11. Format: ADME, organism-based. More on the design: dose 9 mg/kg, route oral. Particulars: Sprague-Dawley, in vivo.
Data set [36] in a line: as §12. Format: ADME, organism-based, Plasma. Further details: time infinity, dose 9 mg/kg, route oral. The note with it: Sprague-Dawley, plasma.
The nature of data set [37]: as §13. Further details: dose 2 mg/kg, route intravenous. The note with it: Sprague-Dawley, in vivo. Format: ADME, organism-based.
Data set [38] in a line: as §14. It is filed as ADME, organism-based, Plasma. Particulars: Sprague-Dawley, plasma. More on the design: time infinity, dose 2 mg/kg, route intravenous.
The nature of data set [39]: as §15. Format: ADME, organism-based, Plasma. Further details: time infinity, dose 30 mg/kg, route oral. Particulars: Sprague-Dawley, plasma.
Data set [40] is described as follows: as §16. Format: ADME, organism-based. More on the design: dose 17.5 mg/kg, route oral. The note with it: Sprague-Dawley, in vivo.
The nature of data set [41]: as §17. It is filed as ADME, organism-based, Plasma. Further details: time infinity, dose 17.5 mg/kg, route oral. Particulars: Sprague-Dawley, plasma.
A short description of data set [42]: as §18. More on the design: dose 30 mg/kg, route intramuscular. Particulars: Sprague-Dawley, in vivo, im. Format: ADME, organism-based.

Molecules are shown by their SMILES.

Take `CCO[C@@H]1O[C@@H]2O[C@]3(C)CC[C@H]4[C@H](C)CC[C@@H]([C@H]1C)[C@@]24OO3` [ALPHA-ARTEETHER]: the time of peak concentration (Tmax) in [1] was 4.8 min. In addition, the CL in the data set on Rhesus monkey [2] was determined as 26.7 mL/min/kg; in the data set on Rhesus monkey [4], 61.7 mL/min/kg; in the data set with Rattus norvegicus [9], 68.3 mL/min/kg; with Rattus norvegicus [11], 40 mL/min/kg; with Rattus norvegicus [14] it was 600 mL/min/kg; with Rattus norvegicus [17], 75 mL/min/kg. Also, the results for the CL in the data set with Rattus norvegicus [19], with Rattus norvegicus [22] and in the data set on Rattus norvegicus [24] were 1330 mL/min/kg, 1708 mL/min/kg and 247 mL/min/kg, respectively. For the same molecule, the exposure (AUC) is 754.4 ng·h/mL in the data set on Rhesus monkey [3]; 641.8 ng·h/mL in the data set on Rhesus monkey [5]; 601.1 ng·h/mL with Rattus norvegicus [7]; 1247.1 ng·h/mL in the data set on Rattus norvegicus [10]; 1058.5 ng·h/mL in the data set on Rattus norvegicus [12]; 6.6 ng·h/mL in the data set with Rhesus monkey [13]. The exposure (AUC) was 73.8 ng·h/mL with Rattus norvegicus [16], 131.7 ng·h/mL in the data set with Rattus norvegicus [18], 111.5 ng·h/mL in the data set on Rattus norvegicus [21] and 50.9 ng·h/mL with Rattus norvegicus [23]. In addition, the Vd in the data set with Rhesus monkey [6] was found to be 7148.8 L/kg. In [8], this molecule had a mean residence time MRT of 23.5 h. The half-life was 2.4 h in data set [15] and 1.5 h in data set [20].

`CCO[C@H]1O[C@@H]2O[C@@]3(C)CC[C@H]4[C@H](C)CC[C@@H]([C@H]1C)[C@@]24OO3` [ARTEMOTIL]: the time to peak (Tmax) in [1] was 6.9 min. The clearance is 38.3 mL/min/kg in data set [25] and 127 mL/min/kg in data set [37]. The AUC(0-inf) in [26] is 1220 ng·h/mL; in [28], 746 ng·h/mL; in [29], 407 ng·h/mL; in data set [31], 2410 ng·h/mL; in data set [33] it was 1180 ng·h/mL; in data set [34], 8.5 ng·h/mL. Further, the AUC(0-inf) in data set [36] amounted to 46.8 ng·h/mL; in [38], 185 ng·h/mL; in data set [39] it was 25.6 ng·h/mL; in [41], 33.9 ng·h/mL. The apparent clearance (CL/F) was 118 mL/min/kg in data set [27]; 83.3 mL/min/kg in data set [30]; 86.7 mL/min/kg in data set [32]; 2120 mL/min/kg in data set [35]; 5060 mL/min/kg in data set [40]; 762 mL/min/kg in [42]. The mean residence time MRT in data set [8] was determined as 33.2 h. Besides, the half-life in [15] was 4.2 h; in data set [20] it was 2.8 h.
